Measured values from the NIST ThermoML archive (doi:10.1021/acs.jced.8b00110).

Assay: xn = mol fraction of the nth substance listed
Details: Liquid, phase equilibration, x1 = 0.05

Structure (SMILES)	binary diffusion coefficient (303.2 K) [m2/s]	binary diffusion coefficient (313.1 K) [m2/s]	binary diffusion coefficient (323.2 K) [m2/s]	binary diffusion coefficient (333.2 K) [m2/s]	binary diffusion coefficient (343.2 K) [m2/s]
FC(F)(F)/C=C/Cl [(E)-1-chloro-3,3,3-trifluoroprop-1-ene] + CCCCCC[n+]1ccn(C)c1.O=S(=O)([N-]S(=O)(=O)C(F)(F)F)C(F)(F)F	2.9e-10	3.8e-10	4.1e-10	5.7e-10	8.3e-10
FC(F)(F)/C=C/Cl [(E)-1-chloro-3,3,3-trifluoroprop-1-ene] + CCCCCCn1cc[n+](C)c1.F[B-](F)(F)F	3.3e-10	4.6e-10	6.1e-10	9.6e-10	1.68e-09
FC(F)(F)/C=C/Cl [(E)-1-chloro-3,3,3-trifluoroprop-1-ene] + CCCCCCn1cc[n+](C)c1.O=S(=O)([O-])C(F)(F)F	5.2e-10	7.8e-10	1.04e-09	1.69e-09	2.62e-09
